The values that follow come from PMC6406907, “A H2AX–CARP-1 Interaction Regulates Apoptosis Signaling Following DNA Damage” (Cancers, 2019).

This assay has as its system MDA-MB-468 cells. Description: Comet assay (DNA damage), MDA-MB-468. The class given is cell-based, human. Also on record: Tail Moment (Mean) / Olive Tail Moment (Mean): unit not given here. The note with it: for percentage of tail DNA and tail moment: 10 μM, 1, 3, 6, 12 h, MDA-MB-468; for Tail Moment (Mean) / Olive Tail Moment (Mean) / %Tail DNA (Mean): MDA-MB-468, 10 µM; for Tail Moment (Mean): control 0.031056; for Olive Tail Moment (Mean): control 0.286711; for %Tail DNA (Mean): control 2.39052, alkaline electrophoresis, Vista Green. How it is done:
The DNA damage assay was performed using a comet assay kit 96-well plate (Cell Bio Labs, CA, USA) as per the manufacturer’s instructions. Briefly, the cell suspension was mixed with the low-melting agarose at 1:20 ratio and added to the pre-coated 96 well plate. The cells were then subjected to lysis for 1 h, followed by alkaline electrophoresis. The plate was then washed in 70% ethanol and Vista Green DNA dye was added. The comets were visualized in Zeiss LSM780 Confocal microscope. The images were processed using Zeiss ZEN lite software and the comet parameters were measured using Open comet software.
Adriamycin is well known to induce DNA damage. Given the critical role of CARP-1 in apoptotic signaling by Adriamycin and CFM compounds, and the fact that stress-activated protein kinases (SAPKs) p38 and JNKs are activated in apoptosis signaling by CFM-4.16 [6, 12, 13, 14, 15, 16, 17, 18], we next determined whether CFM-4.16 also provoked DNA damage. We treated MDA-MB-468 and HeLa cells with a 10 μM dose of Adriamycin or CFM-4.16 for 1, 3, 6, and 12 h, followed by assessment of damaged DNA by the comet assay as described in Section 2. The presence of comet-like tails that contain the fragmented cellular DNA is a well-known marker/indicator of apoptosis. We measured the comet parameters such as percentage tail DNA and mean tail moment. […] Of note is the fact that Adriamycin and related anthracyclines intercalate between DNA bases and trap topoisomerase II (TopoII) in the double-strand cleavage form, thus introducing double-strand breaks (DSBs) due to TopoII poisoning. It remains to be clarified whether CFM-4.16 also targets cellular DNA and/or the associated DNA repair complex protein(s) to introduce DNA strand breaks, or activates caspase-activated DNAses to breakdown cellular genomic DNA.
Figure 2 Adriamycin and CFM-4.16 induce DNA damage. Cells were treated with the noted dose of respective compound for indicated time periods. Mean values for percentage tail DNA content (A,C) and Olive tail moment (B,D) for respective cells from control and treatment periods for each compound were measured using software recommended by the manufacturer of the kit for measurement of DNA damage (Cell Bio Labs, CA, USA). The columns in each chart indicate average values for respective treatment condition; bars, SE; * p ≤ 0.05.
Table S1. Adriamycin and CFM-4.16 stimulate DNA Damage in a time-dependent manner. MDA-MB-468 and HeLa cells were with noted dose of respective compound for indicated time periods.
Mean values for % tail DNA, Tail moment, and Olive tail moment for respective cells from control and treatment periods for each compound were measured using software recommended by the manufacturer of the kit for measurement of DNA damage (Cell Bio Labs, San Diego, CA, USA). The p values for each of the parameter are indicated below the mean values in each column for the treatment time period with each compound for both the cell lines.
Adriamycin (10 µM) CFM-4.16 (10 µM)

Consider `COc1cccc2c1C(=O)c1c(O)c3c(c(O)c1C2=O)C[C@@](O)(C(=O)CO)C[C@@H]3O[C@H]1C[C@H](N)[C@H](O)[C@H](C)O1` [Adriamycin, doxorubicin, reference compound], for which the “percentage of tail DNA and tail moment” value is on record as “significantly increased”. For the same molecule, where the note is “1 h”, the “Tail Moment (Mean)” value worked out at 3.462, the “Olive Tail Moment (Mean)” value is reported as 2.898 and the “%Tail DNA (Mean)” value amounted to 18.75%. For the setting “3 h”, the “Tail Moment (Mean)” value amounted to 14.01, the “Olive Tail Moment (Mean)” value was 9.946 and the “%Tail DNA (Mean)” value was found to be 25.75%. In addition, where the note is “6 h”, the “Tail Moment (Mean)” value is 24.19, the “Olive Tail Moment (Mean)” value was found to be 14.06 and the “%Tail DNA (Mean)” value was 45.55%. Under “12 h”, the “Tail Moment (Mean)” value is recorded as 43.07, the “Olive Tail Moment (Mean)” value stood at 20.46 and the “%Tail DNA (Mean)” value turned out to be 63.02%.

Regarding `O=C1N(Cc2ccccc2Cl)c2ccccc2C12NN=C(c1cccc(Cl)c1)S2` (centres unmarked) [CFM-4.16], the “percentage of tail DNA and tail moment” value is listed as “significantly increased”. Moreover, where the note is “1 h”, the “Tail Moment (Mean)” value worked out at 0.1504, the “Olive Tail Moment (Mean)” value is 0.7773 and the “%Tail DNA (Mean)” value is 2.507%. Moreover, for the setting “3 h”, the “Tail Moment (Mean)” value worked out at 7.45, the “Olive Tail Moment (Mean)” value is on record as 4.594 and the “%Tail DNA (Mean)” value came out at 17.24%. Besides, where the note is “6 h”, the “Tail Moment (Mean)” value came out at 25.29, the “Olive Tail Moment (Mean)” value came out at 13.06 and the “%Tail DNA (Mean)” value is given as 36.18%. For the same molecule, under “12 h”, the “Tail Moment (Mean)” value is listed as 45.02, the “Olive Tail Moment (Mean)” value stood at 24.23 and the “%Tail DNA (Mean)” value worked out at 55.6%.
